Converted amounts (≈) assume the structure as drawn.
Experiments:
Type in all cases: functional
[1] = test system: Mycobacterium tuberculosis; experiment: Antimycobacterial activity against streptomycin, ethambutol, kanamycin, isoniazid, rifabutin, rifampicin, levofloxacin, and ciprofloxacin-resistant Mycobacterium tuberculosis LV19 by microbroth dilution method
[2] = test system: Mycobacterium tuberculosis; experiment: Ratio of MBC99.9 to MIC for streptomycin, ethambutol, kanamycin, isoniazid, rifabutin, rifampicin, levofloxacin, and ciprofloxacin-resistant Mycobacterium tuberculosis LV19
[3] = test system: Mycobacterium tuberculosis; experiment: Antimycobacterial activity against isoniazid, rifampicin, and rifabutin-resistant Mycobacterium tuberculosis LV2 by microbroth dilution method
[4] = test system: Mycobacterium tuberculosis; experiment: Ratio of MBC99.9 to MIC for isoniazid, rifampicin, and rifabutin-resistant Mycobacterium tuberculosis LV2

C=C1C[C@@]23C=CC(=O)[C@@](C)(CCC(=O)Nc4c(O)ccc(C(=O)O)c4O)[C@@H]2C[C@@H]1CC3 (racemic) [PLATENCIN]
MIC [1]: 1 µg/mL (≈ 2.35 µM) | Ratio [2]: >64 | MIC [3]: 1 µg/mL (≈ 2.35 µM) | Ratio [4]: >64
